Literature values in patent US6225288A, “Gamma-ketoacid dipeptides as inhibitors of caspase-3” (Merk Frosst Canada & Co., priority 2000, dated 2001).

How the values were obtained:
[1] = biological target: T1, caspase-3 (Homo sapiens, UniProt P42574)
T1 sequence (P42574 29-175 limits assumed): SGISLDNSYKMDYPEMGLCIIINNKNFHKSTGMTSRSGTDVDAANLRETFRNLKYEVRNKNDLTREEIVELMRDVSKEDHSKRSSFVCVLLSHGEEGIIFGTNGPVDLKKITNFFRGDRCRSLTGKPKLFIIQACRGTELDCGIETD
T1 sequence (P42574 176-277 limits assumed): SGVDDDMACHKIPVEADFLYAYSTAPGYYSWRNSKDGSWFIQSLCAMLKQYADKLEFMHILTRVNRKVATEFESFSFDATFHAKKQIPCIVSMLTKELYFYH

[2] = biological target: T2, caspase-1 (Homo sapiens, UniProt P29466)
T2 sequence (P29466 120-297 limits assumed): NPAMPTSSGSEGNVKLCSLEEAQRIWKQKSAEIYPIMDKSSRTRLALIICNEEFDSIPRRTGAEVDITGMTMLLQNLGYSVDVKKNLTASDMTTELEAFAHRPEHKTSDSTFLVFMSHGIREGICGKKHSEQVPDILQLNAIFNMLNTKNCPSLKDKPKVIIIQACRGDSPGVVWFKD
T2 sequence (P29466 317-404 limits assumed): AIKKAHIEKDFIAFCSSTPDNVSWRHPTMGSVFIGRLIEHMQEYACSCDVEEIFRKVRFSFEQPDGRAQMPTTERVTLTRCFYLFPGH

In the case of Ac-YVAD-CHO, the Ki [1] is given as 12 µM and the Ki [2] is given as under 0.001 µM.
